Test results published in ChEMBL document CHEMBL4270507, “Covalent binding design strategy: A prospective method for discovery of potent targeted anticancer agents” (Eur J Med Chem, 2017).
pIC50: −log10 of the molar value.

target: Tyrosine-protein kinase BTK (Homo sapiens, UniProt Q06187); test: Inhibition of BTK (unknown origin)

pIC50 | SMILES
9.28 | Nc1ncnc2c1c(-c1ccc(Oc3ccccc3)cc1)nn2C1CCCN(C(=O)/C=C/Cl)C1 (configuration not stated)

system: GTPase KRas (Homo sapiens), P01116 [G12C]; test: Binding affinity to hexa-histidine-tagged recombinant human K-Ras isoform 2 G12C mutant (1 to 169 residues) expressed in Escherichia coli BL21 (DE3) at 10 uM after 24 hrs

SMILES | Activity [%]
C=CC(=O)N1CCN(C(=O)CNc2cc(I)c(Cl)cc2O)CC1 | 100
C=CC(=O)N1CCN(C(=O)CNc2cc(C(F)(F)F)c(Cl)cc2OC)CC1 | 14
C=CC(=O)N1CCN(C(=O)CNc2cc(Cl)c(Cl)cc2OC)CC1 | 28

Next, values leading:

Activity [%] | SMILES
50 | C=CS(=O)(=O)NC1CCN(C(=O)CNc2c(Cl)cc(Cl)c3c2OC(C)(C)O3)CC1
100 | C=CS(=O)(=O)NC1CCN(C(=O)CNc2cc(I)c(Cl)cc2OC)CC1
87 | C=CS(=O)(=O)NC1CCN(C(=O)CNc2cc(Cl)c(Cl)cc2O)CC1
